These results are taken from ChEMBL document CHEMBL1127774, “2,3,6-Substituted quinazolinones as angiotensin II receptor antagonists” (Bioorg Med Chem Lett, 1994).

The term pA2 denotes the negative logarithm of the molar antagonist concentration that doubles the agonist concentration needed for the same response. Read a high pA2 as higher antagonist potency. By IC50 is commonly meant the concentration needed to halve the response being measured. A higher IC50 goes with a need for much substance.

Chain of Type-1 angiotensin II receptor (Oryctolagus cuniculus) (P34976 whole entry, looked up): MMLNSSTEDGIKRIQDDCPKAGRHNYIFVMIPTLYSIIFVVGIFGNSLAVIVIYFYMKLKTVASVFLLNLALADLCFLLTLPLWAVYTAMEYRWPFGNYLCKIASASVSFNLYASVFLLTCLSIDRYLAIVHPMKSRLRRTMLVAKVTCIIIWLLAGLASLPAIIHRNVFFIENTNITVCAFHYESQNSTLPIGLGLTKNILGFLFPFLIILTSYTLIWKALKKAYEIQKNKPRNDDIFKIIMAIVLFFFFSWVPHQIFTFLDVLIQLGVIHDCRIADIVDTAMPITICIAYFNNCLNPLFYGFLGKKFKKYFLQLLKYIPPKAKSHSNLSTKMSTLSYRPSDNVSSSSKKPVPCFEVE

The first assay addresses Type-1 angiotensin II receptor (Oryctolagus cuniculus) (UniProt P34976). The assay can be described thus: Concentration required for inhibition […] against Angiotensin II receptor in rabbit aortic rings.
`CCCCc1nc2ccc(C(C)(C)OC)cc2c(=O)n1Cc1ccc(-c2ccccc2-c2nn[nH]n2)cc1` [CL-329167] came in with a pA2 of 8.01.

A further assay concerns the target T1, Angiotensin II receptor (Rattus norvegicus, UniProt P29089+P25095+P35351).
T1 sequence (P29089 whole entry): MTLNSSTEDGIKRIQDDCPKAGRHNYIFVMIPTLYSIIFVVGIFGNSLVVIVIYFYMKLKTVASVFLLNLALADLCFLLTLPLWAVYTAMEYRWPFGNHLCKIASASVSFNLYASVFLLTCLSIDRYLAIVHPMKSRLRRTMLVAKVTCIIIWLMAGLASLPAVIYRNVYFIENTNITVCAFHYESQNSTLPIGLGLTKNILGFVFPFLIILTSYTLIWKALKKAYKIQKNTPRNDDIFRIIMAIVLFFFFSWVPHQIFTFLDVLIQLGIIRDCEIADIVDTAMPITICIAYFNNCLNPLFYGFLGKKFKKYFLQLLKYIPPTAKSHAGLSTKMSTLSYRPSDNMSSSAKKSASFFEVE
T1 sequence (P25095 whole entry): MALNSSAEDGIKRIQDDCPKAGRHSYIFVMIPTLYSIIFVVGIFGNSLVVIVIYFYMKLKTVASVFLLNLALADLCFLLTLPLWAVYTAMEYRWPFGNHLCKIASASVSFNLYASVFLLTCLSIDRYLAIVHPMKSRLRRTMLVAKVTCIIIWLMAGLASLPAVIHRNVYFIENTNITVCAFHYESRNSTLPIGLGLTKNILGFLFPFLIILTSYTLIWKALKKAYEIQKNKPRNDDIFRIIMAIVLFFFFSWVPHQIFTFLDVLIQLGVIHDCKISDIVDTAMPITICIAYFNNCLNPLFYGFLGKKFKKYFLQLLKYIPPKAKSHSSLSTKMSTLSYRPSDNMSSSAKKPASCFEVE
T1 sequence (P35351 whole entry): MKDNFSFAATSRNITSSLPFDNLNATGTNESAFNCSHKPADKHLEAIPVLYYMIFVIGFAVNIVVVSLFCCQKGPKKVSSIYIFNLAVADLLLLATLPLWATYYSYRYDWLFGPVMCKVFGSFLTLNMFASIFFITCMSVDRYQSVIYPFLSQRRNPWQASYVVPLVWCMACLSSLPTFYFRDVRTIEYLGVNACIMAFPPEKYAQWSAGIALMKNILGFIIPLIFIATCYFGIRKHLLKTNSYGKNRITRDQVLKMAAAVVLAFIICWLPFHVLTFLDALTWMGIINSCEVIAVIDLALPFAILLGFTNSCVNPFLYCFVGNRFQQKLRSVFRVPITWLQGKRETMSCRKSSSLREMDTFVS
The assay can be described thus: Concentration required for 50% inhibition of binding against Angiotensin II receptor in the rat adrenal cortex tissue. In kind it is tissue-based.
In turn, `CCCCc1nc2ccc(C(C)N)cc2c(=O)n1Cc1ccc(-c2ccccc2-c2nn[nH]n2)cc1` (centres undefined) yielded an IC50 of 14 nM. The compound `CCCCc1nc2ccc(CN)cc2c(=O)n1Cc1ccc(-c2ccccc2-c2nn[nH]n2)cc1` had an IC50 of 15 nM.

In turn, `CCCCc1nc2ccc(C(C)(C)O)cc2c(=O)n1Cc1ccc(-c2ccccc2-c2nn[nH]n2)cc1` showed a half-inhibitory concentration (IC50) of 9 nM.

Take `CCCCc1nc2ccc(COC)cc2c(=O)n1Cc1ccc(-c2ccccc2-c2nn[nH]n2)cc1`: the IC50 came to 18 nM. Still for that read-out and setting: as for `CCCCc1nc2ccc(C(CC)OC)cc2c(=O)n1Cc1ccc(-c2ccccc2-c2nn[nH]n2)cc1` (centres undefined), the figure is 5 nM. Same read-out and setting: as for `CCCCc1nc2ccc(C(O)CC)cc2c(=O)n1Cc1ccc(-c2ccccc2-c2nn[nH]n2)cc1` (centres undefined), the figure is 12 nM; as for `CCCCc1nc2ccc(C(C)OC)cc2c(=O)n1Cc1ccc(-c2ccccc2-c2nn[nH]n2)cc1` (centres undefined), 7 nM; as for `CCCCc1nc2ccc(CO)cc2c(=O)n1Cc1ccc(-c2ccccc2-c2nn[nH]n2)cc1`, 10 nM. In the case of `CCCCc1nc2ccc(C(C)O)cc2c(=O)n1Cc1ccc(-c2ccccc2-c2nn[nH]n2)cc1` (centres undefined), the IC50 was 9 nM. The same measure, in the same setting: as for `CCCCc1nc2ccc(C(O)CO)cc2c(=O)n1Cc1ccc(-c2ccccc2-c2nn[nH]n2)cc1` (centres undefined), the figure is 1000 nM. Same read-out and setting: the figure for `CCCCc1nc2ccc(C(OC)c3ccccc3)cc2c(=O)n1Cc1ccc(-c2ccccc2-c2nn[nH]n2)cc1` (centres undefined) is 9 nM. As for `CCCCc1nc2ccc(C(O)C(C)(C)C)cc2c(=O)n1Cc1ccc(-c2ccccc2-c2nn[nH]n2)cc1` (centres undefined), the IC50 was found to be 1000 nM. `CCCCc1nc2ccc(C(C)NC(C)=O)cc2c(=O)n1Cc1ccc(-c2ccccc2-c2nn[nH]n2)cc1` (centres undefined) gave an IC50 of 6 nM.

Regarding `CCCCc1nc2ccc(C)cc2c(=O)n1Cc1ccc(-c2ccccc2-c2nn[nH]n2)cc1`, the IC50 came out at 10 nM. Still for that read-out and setting: the figure for `CCCCc1nc2ccc(C(C)(C)OC)cc2c(=O)n1Cc1ccc(-c2ccccc2-c2nn[nH]n2)cc1` [CL-329167] is 6 nM.

For another assay, the target named is T2, Type-1 angiotensin II receptor (Bos taurus, UniProt P25104).
T2 sequence (P25104 whole entry): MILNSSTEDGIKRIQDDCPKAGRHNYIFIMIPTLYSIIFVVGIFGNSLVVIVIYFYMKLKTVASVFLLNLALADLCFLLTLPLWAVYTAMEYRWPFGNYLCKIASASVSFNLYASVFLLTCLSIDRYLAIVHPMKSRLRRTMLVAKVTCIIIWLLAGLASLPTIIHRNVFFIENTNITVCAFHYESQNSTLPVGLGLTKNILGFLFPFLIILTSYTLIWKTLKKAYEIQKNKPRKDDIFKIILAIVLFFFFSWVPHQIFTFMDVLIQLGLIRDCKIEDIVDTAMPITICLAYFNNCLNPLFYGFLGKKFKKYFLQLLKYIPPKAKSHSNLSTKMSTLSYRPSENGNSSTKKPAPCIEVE
The assay can be described thus: Concentration required for 50% inhibition of binding against Angiotensin II receptor in the bovine adrenal cortex tissue. In kind it is tissue-based.
The compound `CCCCc1nc2ccc(COc3ccccn3)cc2c(=O)n1Cc1ccc(-c2ccccc2-c2nn[nH]n2)cc1` had an IC50 of 130 nM. `CCCCc1nc2ccc(COc3ccccc3)cc2c(=O)n1Cc1ccc(-c2ccccc2-c2nnn[nH]2)cc1` came in with an IC50 of 130 nM. Still for that read-out and setting: the figure for `CCCCc1nc(Cl)c(CO)n1Cc1ccc(-c2ccccc2-c2nn[nH]n2)cc1` [LOSARTAN] is 330 nM.
